Measurements published in patent US20250042848A1, “DEUTERATED FUNCTIONALIZED DERIVATIVES OF alpha-ALANINE, IN [sequence] FOR THE TREATMENT OF NEUROLOGICAL DISEASES” (UNIWERSYTET JAGIELLONSKI, priority 2021, published 2025).

Tests used:
[1] = tested on: maximal electroshock seizures in mice; assay: Maximal electroshock seizure test (MES); assay type: in vivo
Method: (§1) Initial screening was performed on groups of 4 mice. The mean effective dose (ED50) in a given test and the neurotoxic dose in the rotarod test (TD50) were estimated on the basis of the results obtained on 3-4 groups of animals consisting of 6 animals.
In the maximal electroshock seizure test (MES), the seizures were induced by 500 V, 25 mA electrical stimulus of 0.2 s in duration. The electrical pulse was generated using an electric shock generator (Rodent shocker, Type 221, Hugo Sachs Elektronik, Germany) and delivered to the animal using electrodes placed on the auricles. The study was conducted 30 minutes/2 hours after intraperitoneal administration of the compounds at various doses. During the experiment, the number of animals that experienced a seizure episode in the form of hindlimb tonic extension was counted (Łuszczki, J.J. et al. Fundam. Clin. Pharmacol. 2008, 22, 69-74).
(§2) The ED50 (effective dose) and TD50 (toxic dose) values along with the corresponding 95% confidence limits were calculated based on the Litchfield and Wilcoxon method (Litchfield, J.T.; Wilcoxon, F. J. Pharmacol. Exp. Ther. 1949, 96, 99-113). To perform a statistical evaluation of the results in the scPTZ test, one-way ANOVA variance analysis followed by Dunnett's post hoc test were used. The values were considered statistically significant if p<0.05.

[2] = tested on: motor coordination of mice; assay: Rotarod test (motor coordination, acute neurotoxicity); assay type: in vivo; settings: in mg/kg
Method: as §1
The effect of the tested compounds on motor coordination was assessed in the rotarod test (May Commat, RR 0711 RotaRod, Turkey). The day before the actual experiment, the mice were trained on a rod rotating at 10 revolutions per minute (rpm) for 3 minutes. The experiment was performed 30 minutes and 2 hours after administration of the compounds. The motor coordination of the animals was tested at the speed of the rotating rod: 10 rpm for 60 seconds. The measure of neurotoxicity was the inability to stay on the rod for a given time (Łuszczki, J.J. et al. Eur. Neuropsychopharmacol. 2005, 6, 609-616).
as §2

[3] = tested on: formalin-induced pain in mice; assay: Formalin test (tonic pain); assay type: in vivo; settings: for nociceptive response, first phase of the formalin test, % of the baseline (control): phase I (0-5 min); for nociceptive response, second phase of the formalin test, % of baseline (control): phase II (15-30 min); for ED50 (dose reducing the nociceptive response by 50%), formalin test: i.p.
Method: Pain was induced with a chemical agent by intraplantar injection of 2.5% formalin solution in mice in a constant volume of 20 μL. The animals were placed in separate, transparent observation chambers for a period of 30 minutes. The measured value was the total licking and biting time of the formalin-treated paw. The nociceptive response was counted in two time intervals: 0-5 minutes from formalin injection (phase I of the test-acute pain) and 15-30 minutes from its administration (phase II of the test-inflammatory pain). The observed inhibition of the nociceptive response-shortening the time of licking and biting the paw, was interpreted as an analgesic effect of the tested compound.
(§3) All tests/models were performed based on procedures described in the specialist literature: formalin test (Beirith et al. Eur. J. Pharmacol. 1998, 345, 233-245), capsaicin-induced pain model (Mogilski et al. Pharmacol. Biochem. Behav. 2015, 133, 99-110), oxaliplatin-induced neuropathic pain model-von Frey's test (Sałat et al. Pharmacol. Biochem. Behav. 2014, 122, 173-181), streptozotocin-induced diabetic neuropathic pain model-von Frey's test (Sałat et al. Neuropharmacology 2017, 125, 181-188; Tanabe et al. J. Pharmacol. Sci. 2008, 107, 213-220). The test group consisted of 8-10 animals.

[4] = tested on: capsaicin-induced pain in mice; assay: Capsaicin-induced pain model; assay type: in vivo
Method: This test evaluated the licking and/or biting time of the hind paw after intraplantar injection of 1.6 μg of capsaicin in a constant volume of 20 μL. Observation was carried out in the period of 5 minutes after capsaicin administration. Inhibition of the nociceptive response —shortening the time of licking and biting the paw, was a measure of the antinociceptive activity of the tested compound.
as §3

[5] = tested on: streptozotocin-induced mechanical allodynia in mice; assay: Streptozotocin-induced diabetic neuropathic pain model, von Frey test; assay type: in vivo; settings: three weeks after STZ
Method: The response was tested 3 weeks after the streptozotocin injection. […] Importantly, d4-(R)-1 completely abolished the symptoms of developing sensory neuropathy at all doses.
as §3

[6] = tested on: mouse liver microsomes (MLMs); assay: In vitro metabolic stability, mouse liver microsomes; assay type: in vitro ADME; settings: 120-minute incubation with MLMs, NADPH
Method: (§4) Metabolic stability assessment was performed using mouse (MLMs) and human (HLMs) liver microsomes purchased from Sigma-Aldrich (St. Louis, MO, USA). The detailed methodology is described in the literature (Kamiński et al. J. Med. Chem. 2015, 58, 5274-5286). The reaction mixture was prepared by mixing […] of the tested compound with mouse or human microsomes (1 mg/mL) in 10 mM TRIS-HCl buffer. The reaction mixture was pre-incubated for 5 min at 37° C. After the initial incubation, 50 μL of the NADPH Regeneration System (Promega, Madison, WI, USA) was added to initiate the reaction. The reaction mixture was then incubated for 120 min at 37° C. 200 μL of cold extra pure methanol was added to complete the reaction. The mixture was then centrifuged at 14,000 g for 15 min and the supernatants were analyzed using a Waters ACQUITY™ TQD LC/MS system with a TQ detector (Waters, Milford, USA). Each experiment was performed in triplicate.

[7] = tested on: human liver microsomes (HLMs); assay: In vitro metabolic stability, human liver microsomes; assay type: in vitro ADME; settings: 120-minute incubation with HLMs
Method: as §4

[8] = tested on: spontaneous locomotor activity of mice; settings: mouse, in vivo
Method: For this purpose, the number of light beam crossings in the cages was counted in each group of animals during a 30-minute observation.
The experiments were carried out on male albino mice (CD-1) weighing 25-30 g, provided by an accredited animal facility. All procedures were performed in accordance with the applicable Polish and European guidelines on the ethics of research on animals, after obtaining the appropriate approval. The substance was administered intraperitoneally after suspension in a 1% Tween 80 solution, as single injections of 0.1 mL/10 g b.w., 30 minutes before a given test.
The assessment of the influence of the tested compound on the spontaneous locomotor activity of animals (assessment of the sedative or activating effect) was carried out in accordance with the methodology described in the scientific literature (Mogilski et al. Inflamm. Res. 2017, 66, 79-95), using a cage with dimensions 40×40×31 cm (Activity Cage; Ugo Basile, Gemonio VA, Italy). The compound was administered 30 minutes before the experiment. The number of light beam crossings was counted in each group during the next 30 min at 10-minute intervals. The study group consisted of 10 animals.

[9] = 0.5 h after i.p. administration
[10] = 2.0 h after i.p. administration

In the case of `[2H]C1([2H])C(=O)N([C@H](C)C(=O)NCc2ccccc2)C(=O)C1([2H])[2H]` [d4-(R)-1, (R)-N-benzyl-2-(2,5-dioxopyrrolidin-1-yl-3,3,4,4-d4) propanamide], the ED50 MES [1, 9] is reported as 43.7 mg/kg, the ED50 MES [1, 10] is reported as 50.1 mg/kg and the “TD50 Rotarod” value [2, 9] is reported as 176.7. The “TD50 Rotarod” value [2, 10] was greater than 300, the “nociceptive response, first phase of the formalin test, % of the baseline (control)” value ([3]; i.p. 30 mg/kg) was 46.80% and the “nociceptive response, second phase of the formalin test, % of baseline (control)” value (shortened to “nociceptive response … % of baseline (control)”) ([3]; i.p. 30 mg/kg) was 46.04%. For the same compound, the “nociceptive response, first phase of the formalin test, % of the baseline (control)” value ([3]; i.p. 60 mg/kg) was 49.85%, the “nociceptive response … % of baseline (control)” value ([3]; i.p. 60 mg/kg) was 56.06% and the “nociceptive response, first phase of the formalin test, % of the baseline (control)” value ([3]; i.p. 90 mg/kg) was 64.40%. The “nociceptive response … % of baseline (control)” value ([3]; i.p. 90 mg/kg) was 43.36%, the “nociceptive response, first phase of the formalin test, % of the baseline (control)” value ([3]; i.p. 120 mg/kg) was 39.68% and the “nociceptive response … % of baseline (control)” value ([3]; i.p. 120 mg/kg) was 30.24%. For the same compound, the “ED50 (dose reducing the nociceptive response by 50%), formalin test” value ([3]; phase I) was 97.9 mg/kg, the “ED50 (dose reducing the nociceptive response by 50%), formalin test” value ([3]; phase II) was 71.5 mg/kg and the “ED50, capsaicin test” value ([4]; i.p.) was 17.5 mg/kg. The “nociceptive response in the capsaicin test, % of the initial value (control)” value ([4]; i.p. 30 mg/kg) was 31.77%, the “nociceptive response in the capsaicin test, % of the initial value (control)” value ([4]; i.p. 60 mg/kg) was 38.72% and the “nociceptive response in the capsaicin test, % of the initial value (control)” value ([4]; i.p. 90 mg/kg) was 10.90%. The “pain threshold (von Frey)” value ([5]; 30 mg/kg i.p.) was 6.80 ± 0.54 g, the “pain threshold, % of baseline” value ([5]; 30 mg/kg i.p.) was 115.4% and the “pain threshold (von Frey)” value ([5]; 60 mg/kg i.p.) was 8.64 ± 0.72 g. The “pain threshold, % of baseline” value ([5]; 60 mg/kg i.p.) was 146.6%, the “pain threshold (von Frey)” value ([5]; 90 mg/kg i.p.) was 9.40 ± 0.61 g and the “pain threshold, % of baseline” value ([5]; 90 mg/kg i.p.) was 159.6%. For the same compound, the “metabolic stability (metabolites in UPLC chromatograms)” value [6] was “no metabolites appeared”, the metabolic stability [7] was “high metabolic stability” and the “locomotor activity (light beam crossings in 30 min), % of the initial value (vehicle)” value [8] was 46.90%.
